# Results from ChEMBL document CHEMBL5352459, “Resorcinol-based hemiindigoid derivatives as human tyrosinase inhibitors and melanogenesis suppressors in human melanoma cells” (Eur J Med Chem, 2023).
# B1: Tyrosinase (Homo sapiens), P14679 (protein)
# chain: MLLAVLYCLLWSFQTSAGHFPRACVSSKNLMEKECCPPWSGDRSPCGQLSGRGSCQNILLSNAPLGPQFPFTGVDDRESWPSVFYNRTCQCSGNFMGFNCGNCKFGFWGPNCTERRLLVRRNIFDLSAPEKDKFFAYLTLAKHTISSDYVIPIGTYGQMKNGSTPMFNDINIYDLFVWMHYYVSMDALLGGSEIWRDIDFAHEAPAFLPWHRLFLLRWEQEIQKLTGDENFTIPYWDWRDAEKCDICTDEYMGGQHPTNPNLLSPASFFSSWQIVCSRLEEYNSHQSLCNGTPEGPLRRNPGNHDKSRTPRLPSSADVEFCLSLTQYESGSMDKAANFSFRNTLEGFASPLTGIADASQSSMHNALHIYMNGTMSQVQGSANDPIFLLHHAFVDSIFEQWLRRHRPLQEVYPEANAPIGHNRESYMVPFIPLYRNGDFFISSKDLGYDYSYLQDSDPDSFQDYIKSYLEQASRIWSWLLGAAMVGAVLTALLAGLVSLLCRHKRKQLPEEKQPLLMEKEDYHSLYQSHL
# Biological target: Mushroom tyrosinase (Agaricus bisporus, UniProt O42713+Q00024+C7FF04+C7FF05)
# Test: not given
# Conditions: not given
row,Ki,Molecule
1,1.27 µM,O=C1/C(=C/c2ccc(=O)n(O)c2)Oc2cc(O)ccc21

# Compound: O=C1/C(=C/c2ccc(O)cc2O)Oc2c(O)cccc21
# Test: not given
# Type: cell-based
# Conditions: Homo sapiens; HEK293T; dose 0-8 µM, time 1.0 hrs
row,Molecule,Vmax
1,B1,4.86 µmol/min/mg

# Compound: O=C1/C(=C/c2ccc(O)cc2O)Cc2c(O)cccc21
# Test: not given
# Type: cell-based
# Conditions: Homo sapiens; HEK293T; dose 0-8 µM, time 1.0 hrs
row,Molecule,Vmax
1,B1,5.18 µmol/min/mg

# System: not listed separately
# Test: in vitro
# Conditions: human, MNT-1 cells
# Description: Cytotoxicity against human MNT-1 cells
row,Molecule,CC50
1,O=C1/C(=C/c2ccc(O)cc2O)Cc2c(O)cccc21,91 µM
2,O=C1/C(=C/c2ccc(O)cc2O)Oc2c(O)cccc21,108 µM

# Compound: O=C1/C(=C/c2ccc(O)cc2O)Oc2c(O)cccc21
# Test: not given
# Type: cell-based
# Conditions: Homo sapiens; HEK293T; dose 0-8 µM, time 1.0 hrs
# Remark: another data set of the same source
row,Molecule,kcat
1,B1,5.41 s⁻¹

# Compound: O=C1/C(=C/c2ccc(O)cc2O)Cc2c(O)cccc21
# Test: not given
# Type: cell-based
# Conditions: Homo sapiens; HEK293T; dose 0-8 µM, time 1.0 hrs
# Remark: another data set of the same source
row,Molecule,kcat
1,B1,5.78 s⁻¹

# Biological target: T1, Tyrosinase (Homo sapiens, UniProt P14679)
# T1 sequence (P14679 whole entry): B1 chain
# Test: Inhibition of human tyrosinase
# Conditions: not given
row,IC50,Molecule
1,> 3000 µM,Oc1cccc(O)c1 [RESORCINOL]

# Biological target: T1, Tyrosinase
# Test: not given
# Conditions: not given
row,Ki,Molecule
1,0.25 µM,O=C1/C(=C/c2ccc(O)cc2O)Cc2c(O)cccc21
2,0.55 µM,O=C1/C(=C/c2ccc(O)cc2O)Oc2c(O)cccc21

# Compound: O=C1/C(=C/c2ccc(O)cc2O)Oc2c(O)cccc21
# Test: not given
# Type: cell-based
# Conditions: Homo sapiens; HEK293T; dose 0-8 µM, time 1.0 hrs
# Remark: another data set of the same source
row,Molecule,Km
1,B1,143 µM

# Compound: O=C1/C(=C/c2ccc(O)cc2O)Cc2c(O)cccc21
# Test: not given
# Type: cell-based
# Conditions: Homo sapiens; HEK293T; dose 0-8 µM, time 1.0 hrs
# Remark: another data set of the same source
row,Molecule,Km
1,B1,161 µM

# System: MNT-1
# Test: cells
# Conditions: Homo sapiens, MNT-1, 96 h
# Description: Inhibition of melanogenesis in human MNT-1 cells incubated for 96 hrs
row,IC50,Molecule
1,29 µM,O=C1/C(=C/c2ccc(O)cc2O)Cc2c(O)cccc21
2,32 µM,O=C1/C(=C/c2ccc(O)cc2O)Oc2c(O)cccc21

# Biological target: T1, Tyrosinase
# Test: not given
# Conditions: not given
# Remark: another data set of the same source
row,IC50,Molecule
1,> 100 µM,O=c1cc(-c2ccc(O)cc2O)oc2ccccc12
2,> 100 µM,COc1ccc2c(c1OC)O/C(=C\c1ccc(O)cc1O)C2=O
3,15 µM,O=C1/C(=C/c2c(O)cc(O)cc2O)Oc2cc(O)ccc21
4,> 100 µM,COc1cc(OC)c2c(c1)O/C(=C\c1ccc(O)cc1O)C2=O
5,> 100 µM,Cc1c(C(=O)c2ccc(O)cc2O)oc2c(O)cccc12
6,60 µM,O=C(/C=C/c1ccc(O)cc1O)c1ccccc1
7,1.6 µM,O=C1/C(=C/c2ccc(O)cc2O)Cc2c(O)cccc21
8,3.4 µM,O=C1/C(=C/c2ccc(O)cc2O)Cc2cc(O)ccc21
9,88 µM,O=C1/C(=C/c2ccc(O)cc2O)Oc2cc(F)cc(F)c21
10,48 µM,O=C1/C(=C/c2ccc(O)cc2O)Sc2c(O)cccc21
11,80 µM,COc1cccc2c1O/C(=C\c1ccc(O)cc1O)C2=O
12,> 100 µM,COc1cc(O)ccc1/C=C1\Oc2cc(O)ccc2C1=O
13,5.8 µM,O=C1/C(=C/c2ccc(O)cc2O)Sc2cc(O)ccc21
14,> 100 µM,O=C1C(=Cc2ccc(O)cc2O)C(=O)c2ccccc21
15,1.57 µM,O=C1/C(=C/c2ccc(O)cc2O)Oc2c(O)cccc21
16,> 100 µM,CN(C)c1ccc2c(c1)O/C(=C\c1ccc(O)cc1O)C2=O
17,2.3 µM,O=C1/C(=C/c2ccc(O)cc2O)Nc2cc(O)ccc21
18,> 100 µM,O=C1c2ccccc2C(=O)N1Cc1ccc(O)cc1O
19,11.8 µM,O=C1/C(=C/c2ccc(O)cc2O)Oc2c1ccc(O)c2O
20,6.4 µM,O=C1/C(=C/c2ccc(O)cc2O)Oc2cc(O)ccc21

row,IC50,Molecule
1,18 µM,O=C1/C(=C/c2ccc(O)cc2O)Oc2ccccc21
2,> 100 µM,Oc1ccc(Cc2cc3cccc(O)c3o2)c(O)c1
3,5.8 µM,O=C1/C(=C/c2ccc(O)cc2O)Cc2ccccc21
4,> 100 µM,O=c1c2ccccc2[nH]n1Cc1ccc(O)cc1O
5,32 µM,O=C1/C(=C/c2ccc(O)cc2O)Oc2c1ccc(O)c2I
6,> 100 µM,O=C1/C(=C/c2ccc(O)cc2O)Oc2cc(Cl)ccc21
7,7.7 µM,O=C1/C(=C/c2ccc(O)cc2O)Oc2cc(O)cc(O)c21
8,8.2 µM,CC1/C(=C\c2ccc(O)cc2O)C(=O)c2ccccc21 (centres undefined)
9,> 100 µM,COc1ccc2c(c1C)O/C(=C\c1ccc(O)cc1O)C2=O
10,19 µM,O=C1/C(=C/c2ccc(O)cc2O)Oc2ccc(O)cc21
11,> 100 µM,Nc1c(C(=O)c2ccc(O)cc2O)oc2c(O)cccc12
12,25 µM,O=C1/C(=C/c2ccc(O)cc2O)Oc2cccc(O)c21
13,12.7 µM,O=C1/C(=C/c2ccc(O)cc2O)Nc2ccccc21
14,5.9 µM,O=C1/C(=C/c2ccc(O)cc2O)Sc2ccccc21
15,18.4 µM,CN(C)c1cc(O)c2c(c1)O/C(=C\c1ccc(O)cc1O)C2=O
16,80 µM,Cc1c(O)ccc2c1O/C(=C\c1ccc(O)cc1O)C2=O
17,8.3 µM,CCCCc1ccc(O)cc1O [RUCINOL]
18,6.9 µM,COc1ccc2c(c1)O/C(=C\c1ccc(O)cc1O)C2=O
19,> 100 µM,CCCCOc1ccc2c(c1)O/C(=C\c1ccc(O)cc1O)C2=O
20,15 µM,O=C1/C(=C/c2ccc(=O)n(O)c2)Oc2cc(O)ccc21
